Values after ≈ are worked out from the molar mass of the structure shown. Where only a bound is given, the exact number is not on record here.

One data set concerns MRC-5 SV2 cells. In words: Cytotoxicity assay (resazurin). To be noted: Homo sapiens, MRC-5 fibroblast cytotoxicity, 72 h. Type of data set: cell-based. Here is the method: Stock solutions were prepared in 100% DMSO at 20 mg/mL just prior to screening. […] Reference drugs were either obtained from the fine chemical supplier Sigma or from WHO-TDR. The integrated panel of microbial screens and standard screening methodologies was adopted as previously described. All assays were performed in triplicate at the Laboratory of Microbiology, Parasitology and Hygiene at the University of Antwerp, Belgium. […] The selectivity antiprotozoal potential was assessed by simultaneous evaluation of cytotoxicity on a fibroblast (MRC-5) cell line. […] Cell viability was assessed fluorimetrically after 4 h of addition of resazurin. Fluorescence was measured (excitation 550 nm, emission 590 nm) and the results were expressed as % reduction in cell viability compared to control.
For orientation: The colour change of resazurin is a common sign of viable cells or microbes.

The nature of data set [1]: Solubility in DMSO/Water (practical data). Type of data set: physicochemical.

In the case of `O=c1n(Cc2ccc3c(c2)OCO3)nc2c(S(=O)(=O)N3CCCCC3)cccn12` [Compound 13b, 2-(Benzo[d][1,3]dioxol-5-ylmethyl)-8-(piperidin-1-ylsulfonyl)-[1,2,4]triazolo[4,3-a]pyridin-3(2H)-one], the melting point (as a rule, the temperature, or range, at which the solid turns liquid) is 160 to 161 °C. Further, the IC50 – broadly, the midpoint of a concentration-inhibition curve – in the data set on MRC-5 SV2 cells was above 64 µg/mL.

Take `O=c1n(Cc2ccc(F)cc2Cl)nc2ccc(S(=O)(=O)N3CCSCC3)cn12` [Compound 13j, 2-(2-Chloro-4-fluorobenzyl)-6-(thiomorpholinosulfonyl)-[1,2,4]triazolo[4,3-a]pyridin-3(2H)-one]: the melting point lay within 190 to 191 °C. For the same molecule, the IC50 in the data set with MRC-5 SV2 cells is above 64 µg/mL. Molecule `O=S(=O)(c1cccn2cnnc12)N(Cc1cccc(Cl)c1)c1cc(F)cc(F)c1` [Compound 8a, N-(3-chlorobenzyl)-N-(3,5-difluorophenyl)-[1,2,4]triazolo[4,3-a]pyridine-8-sulfonamide] showed a melting point of 160 to 162 °C. In the data set with MRC-5 SV2 cells, this molecule registered an IC50 above 64 µg/mL. In the same order, the values of `COc1ccc(CSc2nnc3c(S(=O)(=O)N4CCCCC4)cccn23)cc1` [Compound 15a, 3-(4-Methoxybenzylthio)-8-(piperidin-1-ylsulfonyl)-[1,2,4]triazolo[4,3-a]pyridine] are 169 to 170 °C and above 64 µg/mL. In the data set on MRC-5 SV2 cells, `COc1ccc(CN(c2cc(C)cc(C)c2)S(=O)(=O)c2cccn3c(C)nnc23)cc1` [Compound 8c, N-(3,5-dimethylphenyl)-N-(4-methoxybenzyl)-3-methyl-[1,2,4]triazolo[4,3-a]pyridine-8-sulfonamide] displayed an IC50 above 64 µg/mL. Regarding `COC(=O)c1ccc(CN(c2cccc(C)c2)S(=O)(=O)c2ccc3nnc(C)n3c2)o1` [Compound 8d, Methyl 5-{[3-methyl-N-(3-methylphenyl)-[1,2,4]triazolo[4,3-a]pyridine-6-sulfonamido]methyl}furan-2-carboxylate], the melting point fell in the range of 152 to 154 °C. In the data set with MRC-5 SV2 cells, the IC50 is above 64 µg/mL. In the same order, the values of `O=c1n(Cc2cccc(F)c2)nc2ccc(S(=O)(=O)N3CCSCC3)cn12` [Compound 13i, 2-(3-Fluorobenzyl)-6-(thiomorpholinosulfonyl)-[1,2,4]triazolo[4,3-a]pyridin-3(2H)-one] are 154 to 155 °C and above 64 µg/mL. Turning to `O=c1n(Cc2cccc(Cl)c2)nc2c(S(=O)(=O)N3CCCCC3)cccn12` [Compound 13a, 2-(3-Chlorobenzyl)-8-(piperidin-1-ylsulfonyl)-[1,2,4]triazolo[4,3-a]pyridin-3(2H)-one], the Solubility result in data set [1] is reported as “moderately soluble”. This molecule showed an IC50 in the data set on MRC-5 SV2 cells above 64 µg/mL.

With `Cc1ccc(CSc2nnc3c(S(=O)(=O)N4CCCCC4)cccn23)cc1` [Compound 15c, 3-(4-Methylbenzylthio)-8-(piperidin-1-ylsulfonyl)-[1,2,4]triazolo[4,3-a]pyridine], the melting point lay within 155 to 156 °C. The same molecule displayed an IC50 in the data set on MRC-5 SV2 cells above 64 µg/mL. Taken in the same sequence, the figures for `Cc1nnc2ccc(S(=O)(=O)N(Cc3cccc(Cl)c3)c3ccc(F)cc3)cn12` [Compound 8g, N-(3-chlorobenzyl)-N-(4-fluorophenyl)-3-methyl-[1,2,4]triazolo[4,3-a]pyridine-6-sulfonamide] were 107 to 109 °C and above 64 µg/mL.

The molecule `O=S(=O)(c1cccn2c(SCc3ccc(F)cc3)nnc12)N1CCCc2ccccc21` [Compound 15f, 1-(3-(4-Fluorobenzylthio)-[1,2,4]triazolo[4,3-a]pyridin-8-ylsulfonyl)-1,2,3,4-tetrahydroquinoline] showed a melting point of 113 to 115 °C. This molecule also had an IC50 in the data set on MRC-5 SV2 cells above 64 µg/mL.

`CC1CCN(S(=O)(=O)c2ccc3nn(Cc4ccccc4F)c(=O)n3c2)CC1` [Compound 13h, 2-(2-Fluorobenzyl)-6-(4-methylpiperidin-1-ylsulfonyl)-[1,2,4]triazolo[4,3-a]pyridin-3(2H)-one] came in with a melting point of 150 to 151 °C. The same molecule returned an IC50 in the data set with MRC-5 SV2 cells above 64 µg/mL.

Take `O=S(=O)(c1cccn2c(SCc3cccc(Br)c3)nnc12)N1CCCCC1` [Compound 15b, 3-(3-Bromobenzylthio)-8-(piperidin-1-ylsulfonyl)-[1,2,4]triazolo[4,3-a]pyridine]: the melting point was 160 to 162 °C. For the same molecule, in the data set on MRC-5 SV2 cells, the IC50 was above 64 µg/mL.

As for `O=c1n(Cc2ccccc2Cl)nc2c(S(=O)(=O)N3CCOCC3)cccn12` [Compound 13d, 2-(2-Chlorobenzyl)-8-(morpholinosulfonyl)-[1,2,4]triazolo[4,3-a]pyridin-3(2H)-one], the IC50 in the data set with MRC-5 SV2 cells was above 64 µg/mL. The molecule `O=S(=O)(c1cccn2c(SCc3cccc(Cl)c3)nnc12)N1CCCC1` [Compound 15d, 3-(3-Chlorobenzylthio)-8-(pyrrolidin-1-ylsulfonyl)-[1,2,4]triazolo[4,3-a]pyridine] yielded a melting point of 143 to 145 °C. Further, the IC50 with MRC-5 SV2 cells is above 64 µg/mL. Taken in the same sequence, the figures for `Cc1cccc(Cn2nc3ccc(S(=O)(=O)N4CCC(C)CC4)cn3c2=O)c1` [Compound 13g, 2-(3-Methylbenzyl)-6-(4-methylpiperidin-1-ylsulfonyl)-[1,2,4]triazolo[4,3-a]pyridin-3(2H)-one] were 145 to 146 °C and above 64 µg/mL. Regarding `Cc1cc(C)cc(N(Cc2cc(C)ccc2C)S(=O)(=O)c2cccn3c(C)nnc23)c1` [Compound 8b, N-(2,5-dimethylbenzyl)-N-(3,5-dimethylphenyl)-3-methyl-[1,2,4]triazolo[4,3-a]pyridine-8-sulfonamide], the IC50 in the data set with MRC-5 SV2 cells came out at 48.5 µg/mL (≈ 112 µM). `CCc1nnc2ccc(S(=O)(=O)N(Cc3cccc(F)c3)c3ccc(OC)cc3)cn12` [Compound 8e, 3-Ethyl-N-(3-fluorobenzyl)-N-(4-methoxyphenyl)-[1,2,4]triazolo[4,3-a]pyridine-6-sulfonamide]: in data set [1], the Solubility result was “moderately soluble”. The same molecule had a half-inhibitory concentration (IC50) with MRC-5 SV2 cells of 18.2 µg/mL (≈ 41.3 µM). The molecule `O=c1n(Cc2ccc(Cl)cc2)nc2ccc(S(=O)(=O)N3CCCCC3)cn12` [Compound 13f, 2-(4-Chlorobenzyl)-6-(piperidin-1-ylsulfonyl)-[1,2,4]triazolo[4,3-a]pyridin-3(2H)-one] came in with a melting point of 173 to 174 °C. The IC50 in the data set on MRC-5 SV2 cells is above 64 µg/mL. With `Cc1nnc2ccc(S(=O)(=O)N(Cc3ccccc3F)c3cccc(Cl)c3)cn12` [Compound 8h, N-(3-chlorophenyl)-N-(2-fluorobenzyl)-3-methyl-[1,2,4]triazolo[4,3-a]pyridine-6-sulfonamide], the IC50 in the data set with MRC-5 SV2 cells was above 64 µg/mL. Take `O=C1CCCN1c1ccc(Cn2nc3c(S(=O)(=O)N4CCOCC4)cccn3c2=O)cc1` [Compound 13e, 8-(Morpholinosulfonyl)-2-[4-(2-oxopyrrolidin-1-yl)benzyl]-[1,2,4]triazolo[4,3-a]pyridin-3(2H)-one]: the melting point is 258 to 260 °C (dec.). This molecule also gave an IC50 with MRC-5 SV2 cells above 64 µg/mL.

In turn, `Cc1cccc(CN(c2ccc(F)cc2)S(=O)(=O)c2ccc3nnc(C)n3c2)c1` [Compound 8f, N-(4-fluorophenyl)-3-methyl-N-(3-methylbenzyl)-[1,2,4]triazolo[4,3-a]pyridine-6-sulfonamide] came in with a melting point of 104 to 105 °C. This molecule showed an IC50 in the data set on MRC-5 SV2 cells above 64 µg/mL. Taken in the same sequence, the figures for `O=c1n(Cc2cc(F)cc(F)c2)nc2c(S(=O)(=O)N3CCCCC3)cccn12` [Compound 13c, 2-(3,5-Difluorobenzyl)-8-(piperidin-1-ylsulfonyl)-[1,2,4]triazolo[4,3-a]pyridin-3(2H)-one] were 221 to 222 °C and above 64 µg/mL.

`O=S(=O)(c1cccn2c(SCc3ccccc3Cl)nnc12)N1CCCC1` [Compound 15e, 3-(2-Chlorobenzylthio)-8-(pyrrolidin-1-ylsulfonyl)-[1,2,4]triazolo[4,3-a]pyridine]: the melting point was in the range of 164 to 166 °C. Also, the IC50 in the data set with MRC-5 SV2 cells was above 64 µg/mL.

For the molecule `Cc1nnc2ccc(S(=O)(=O)N(Cc3ccc(F)cc3)c3ccc(Cl)cc3)cn12` [Compound 8i, N-(4-chlorophenyl)-N-(4-fluorobenzyl)-3-methyl-[1,2,4]triazolo[4,3-a]pyridine-6-sulfonamide], the melting point lay in the range of 198 to 199 °C. Also, the half-inhibitory concentration (IC50) in the data set with MRC-5 SV2 cells is above 64 µg/mL.

The record behind these values is article PMC7582516, “A Novel Series of [1,2,4]Triazolo[4,3-a]Pyridine Sulfonamides as Potential Antimalarial Agents: In Silico Studies, Synthesis and In Vitro Evaluation” (Molecules, 2020).
